Common to all, as to assay type: cell-based
One test deals with A431 cells. Put plainly: A431 growth assay (2% FBS). The settings on record: Homo sapiens, A-431, read-out: A431 growth (2% FBS) IC50.
In test [1] the target is T1, chimeric receptor having the extra-cellular domain of EGF-R and the intra-cellular domain of Her2 (Homo sapiens, UniProt P04626).
T1 construct: fused on or other part: the same chimera
Put plainly: EGF-induced Her2-driven BrdU incorporation. The settings on record: read-out: BrdU HER 2 driven IC50. The procedure:
The cellular/catalytic assays described herein are performed in an ELISA format. The general procedure is as follows: a compound is introduced to cells expressing the test kinase, either naturally or recombinantly, for a selected period of time after which, if the test kinase is a receptor, a ligand known to activate the receptor is added. The cells are lysed and the lysate is transferred to the wells of an ELISA plate previously coated with a specific antibody recognizing the substrate of the enzymatic phosphorylation reaction. Non-substrate components of the cell lysate are washed away and the amount of phosphorylation on the substrate is detected with an antibody specifically recognizing phosphotyrosine compared with control cells that were not contacted with a test compound. The cellular/biologic assays described herein measure the amount of DNA made in response to activation of a test kinase, which is a general measure of a proliferative response. The general procedure for this assay is as follows: a compound is introduced to cells expressing the test kinase, either naturally or recombinantly, for a selected period of time after which, if the test kinase is a receptor, a ligand known to activate the receptor is added. After incubation at least overnight, a DNA labeling reagent such as Bromodeoxyuridine (BrdU) or 3H-thymidine is added. The amount of labeled DNA is detected with either an anti-BrdU antibody or by measuring radioactivity and is compared to control cells not contacted with a test compound.
EGF-Induced Her2-Driven BrdU Incorporation
Protocol • (1) Cells-are seeded at 8000 cells/well in DMEM, 10% CS, 2mM Gln in a 96-well plate. Cells are incubated overnight at 37° C. in 5% CO2. • (2) After 24 hours, the cells are washed with PBS, and then are serum starved in serum free medium (0% CS DMEM with 0.1% BSA) for 24 hours. • (3) On day 3, ligand (EGF=2 nM, prepared in DMEM with 0.1% BSA) and test compounds are added to the cells simultaneously. The negative control wells receive serum free DMEM with 0.1% BSA only, the positive control cells receive the ligand (EGF) but no test compound. Test compounds are prepared in serum free DMEM with ligand in a 96 well plate, and serially diluted for 7 test concentrations. • (4) After 20 hours of ligand activation, diluted BrdU labeling reagent (1:100 in DMEM, 0.1% BSA) is added and the cells are incubated with BrdU (final concentration=10 μM) for 1.5 hours. • (5) After incubation with labeling reagent, the medium is removed by decanting and tapping the inverted plate on a paper towel. FixDenat solution is added (50 μl/well) and the plates are incubated at room temperature for 45 minutes on a plate shaker. • (6) The FixDenat solution is thoroughly removed by decanting and tapping the inverted plate on a paper towel. Milk is added (5% dehydrated milk in PBS, 200 μ/well) as a blocking solution and the plate is incubated for 30 minutes at room temperature on a plate shaker. • (7) The blocking solution is removed by decanting and the wells are washed once with PBS. Anti-BrdU-POD solution (1:100 dilution in PBS, 1% BSA) is added (100 μl/well) and the plate is incubated for 90 minutes at room temperature on a plate shaker. • (8) The antibody conjugate is thoroughly removed by decanting and rinsing the wells 5 times with PBS, and the plate is dried by inverting and tapping on a paper towel. • (9) TMB substrate solution is added (100 μl/well) and incubated for 20 minutes at room temperature on a plate shaker until color development is sufficient for photometric detection. • (10) The absorbance of the samples are measured at 410 nm (in “dual wavelength” mode with a filter reading at 490 nm, as a reference wavelength) on a Dynatech ELISA plate reader.
In general terms: Uptake of a labelled nucleoside into DNA is a usual measure of proliferation.

The subject of the next test is SKOV3 cells. The experiment in a line: SKOV3 growth assay (2% FBS). The settings on record: Homo sapiens, SK-OV-3, read-out: SKOV3 growth (2% FBS) IC50.

Each structure is given as a SMILES string.

21 compounds from patent US6855730B2, “3-methylidenyl-2-indolinone modulators of protein kinase” (Sugen, Inc., priority 1998, dated 2005) can be followed below.

T1 sequence (P04626 676-1255 limits assumed, change not shown): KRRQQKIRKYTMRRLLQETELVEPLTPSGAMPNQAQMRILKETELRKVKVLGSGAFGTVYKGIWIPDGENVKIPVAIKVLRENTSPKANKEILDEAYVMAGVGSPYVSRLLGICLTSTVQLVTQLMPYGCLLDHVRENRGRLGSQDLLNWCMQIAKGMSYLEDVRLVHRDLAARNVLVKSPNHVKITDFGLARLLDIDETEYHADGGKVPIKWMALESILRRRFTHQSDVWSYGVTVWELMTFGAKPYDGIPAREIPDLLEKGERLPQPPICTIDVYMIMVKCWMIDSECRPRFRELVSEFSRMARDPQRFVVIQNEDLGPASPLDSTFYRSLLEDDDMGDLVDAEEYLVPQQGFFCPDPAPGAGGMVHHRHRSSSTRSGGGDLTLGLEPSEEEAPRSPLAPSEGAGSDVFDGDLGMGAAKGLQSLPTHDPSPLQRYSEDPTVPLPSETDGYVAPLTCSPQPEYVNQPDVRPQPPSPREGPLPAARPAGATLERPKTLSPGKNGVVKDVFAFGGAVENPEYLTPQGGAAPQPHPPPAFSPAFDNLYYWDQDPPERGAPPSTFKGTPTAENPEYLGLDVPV

For `COc1c(C)cc(/C=C2/C(=O)Nc3ccc(Cl)cc32)cc1C` [Example 21, 5-Chloro-3-(4-methoxy-3,5-dimethylbenzylidene)-1,3-dihydroindol-2-one], the IC50 – broadly, the concentration that gives 50% inhibition – with A431 cells turned out to be 15.3 µM; in test [1], 6.6 µM; in the test on SKOV3 cells it was 13 µM.
For the compound `CC1(C)CCc2cc(/C=C3/C(=O)Nc4ccc(F)cc43)ccc2O1` [Example 23, 3-(2,2-Dimethylchroman-6-ylmethylene)-5-fluoro-1,3-dihydroindol-2-one], the figures for the IC50 (with A431 cells; in test [1]; in the test on SKOV3 cells) were 14.5 µM, 27.1 µM and 17.8 µM, respectively.
As for `CC(C)c1cc(/C=C2/C(=O)Nc3ccc(Cl)cc32)cc(C(C)C)c1OCCN1CCOCC1` [Example 24, 5-chloro-3-[3,5-diisopropyl-4-(2-morpholin-4-ylethoxy)-benzylidene]-1,3-dihydroindol-2-one], the IC50 was 4.5 µM in the test with A431 cells, 7.1 µM in test [1] and 6.5 µM in the test on SKOV3 cells.
Taken in the same sequence, the figures for `COc1ccc(/C=C2/C(=O)Nc3ccc(CCN4CCOCC4)cc32)cc1-c1ccsc1` [Example 26, 3-(4-Methoxy-3-thiophen-3-ylbenzylidene)-5-(2-morpholin-4-yl-ethyl)-1,3-dihydroindol-2-one] were 3 µM, greater than 50 µM and 5.4 µM.
For the compound `COc1cc(C)c(C=C2C(=O)Nc3cc(NC(C)=O)ccc32)cc1C(C)C` [Example 27, N-[3-(5-Isopropyl-4-methoxy-2-methyl-benzylidene)-2-oxo-2,3-dihydro-1H-indol-6-yl]-acetamide], the results for the IC50 (in the test on A431 cells; in test [1]; in the test with SKOV3 cells) were 6.4 µM, 23.4 µM and 5.1 µM, respectively.
On to `COc1ccc(C=C2C(=O)Nc3ccccc32)cc1-c1cccc(NC(C)=O)c1` [Example 29, N-[2′-Methoxy-5′-(2-oxo-1,2-dihydroindol-3-ylidenemethyl)-biphenyl-3-yl]-acetamide], for which the results for the IC50 (with A431 cells; in test [1]; with SKOV3 cells) were 5.6 µM, 8.1 µM and 7.9 µM, respectively.
Consider `COc1cc(C)c(/C=C2/C(=O)Nc3ccc(F)cc32)cc1C(C)C` [Example 30, 5-Fluoro-3-(5-isopropyl-4-methoxy-2-methyl-benzylidene)-1,3-dihydroindol-2-one], for which the IC50 was 9.9 µM with A431 cells, 8.1 µM in test [1] and 16 µM in the test with SKOV3 cells.
For `COc1ccc(/C=C2/C(=O)Nc3cc(NC(C)=O)ccc32)cc1-c1cccs1` [Example 31, N-[3-(4-Methoxy-3-thiophen-2-ylbenzylidene)-2-oxo-2,3-dihydro-1H-indol-6-yl]-acetamide], the IC50 in the test with A431 cells came out at 0.3 µM; in test [1], 28.7 µM; with SKOV3 cells it was 0.4 µM.
In the case of `COc1ccc(/C=C2/C(=O)Nc3ccccc32)cc1-c1ccsc1` [Example 35, 3-(4-Methoxy-3-thiophen-3-ylbenzylidene)-1,3-dihydroindol-2-one], the IC50 with A431 cells is 13.4 µM; in test [1] it was 13.8 µM; with SKOV3 cells it was 16.2 µM.
On to `COc1cc(C)c(/C=C2/C(=O)Nc3ccc(Br)cc32)cc1C(C)C` [Example 36, 5-Bromo-3-(5-isopropyl-4-methoxy-2-methyl-benzylidene)-1,3-dihydroindol-2-one], for which the IC50 with A431 cells was greater than 25 µM; in test [1], 21.4 µM; in the test with SKOV3 cells, greater than 25 µM.
For `COc1cc(/C=C2/C(=O)Nc3ccccc32)c(-c2cccs2)cc1OC` [Example 39, 3-(4,5-Dimethoxy-2-thiophen-2-ylbenzylidene)-1,3-dihydroindol-2-one], the values for the IC50 (with A431 cells; in test [1]; in the test with SKOV3 cells) were 9.2 µM, 5.4 µM and 9.6 µM, respectively.
As to `CC(=O)Nc1ccc2c(c1)NC(=O)/C2=C/c1ccc(OCCN2CCOCC2)c(-c2cccs2)c1` [Example 40, N-{3-[4-(2-Morpholin-4-ylethoxy)-3-thiophen-2-ylbenzylidene]-2-oxo-2,3-dihydro-1H-indol-6-yl}-acetamide], the figures for the IC50 (in the test on A431 cells; in test [1]; with SKOV3 cells) were 14.2 µM, 22.6 µM and 22.5 µM, respectively.
Taken in the same sequence, the figures for `CCOc1cccc(-c2cc(C=C3C(=O)Nc4ccccc43)ccc2OC)c1` [Example 46, 3-(3′-Ethoxy-6-methoxybiphenyl-3-ylmethylene)-1,3-dihydroindol-2-one] were 5.5 µM, 25.3 µM and 7.7 µM.
For the compound `COc1ccc(/C=C2/C(=O)Nc3ncccc32)cc1C1CCCC1` [Example 47, 3-(3-Cyclopentyl-4-methoxybenzylidene)-1,3-dihydropyrrolo[2,3-b]pyridin-2-one], the IC50 was 40.4 µM in the test on A431 cells, greater than 50 µM in test [1] and 46.9 µM in the test on SKOV3 cells.
Take `COc1cc(C=C2C(=O)Nc3ccccc32)c(-c2ccccc2OC)cc1OC` [Example 49, 3-(4,5,2′-Trimethoxybiphenyl-2-ylmethylene)-1,3-dihydroindol-2-one]: the IC50 is 20.7 µM in the test with A431 cells, 9.1 µM in test [1] and 20.6 µM with SKOV3 cells.
On to `CC(C)c1cc(/C=C2/C(=O)Nc3ccc(Br)cc32)cc(C(C)C)c1OCCN1CCOCC1` [Example 57, 5-Bromo-3-[3,5-diisopropyl-4-(2-morpholin-4-ylethoxy)benzylidene]-1,3-dihydroindol-2-one], for which the results for the IC50 (in the test with A431 cells; in test [1]; in the test on SKOV3 cells) were 5.8 µM, 9.6 µM and 4 µM, respectively.
Regarding `CCOc1cccc(-c2cc(OC)c(OC)cc2/C=C2/C(=O)Nc3ccccc32)c1` [Example 58, 3-(3′-Ethoxy-4,5-dimethoxybiphenyl-2-ylmethylene)-1,3-dihydroindol-2-one], the IC50 turned out to be 10.5 µM in the test with A431 cells, 13.5 µM in test [1] and 22 µM in the test on SKOV3 cells.
Take `COc1ccc(/C=C2/C(=O)Nc3ccc(Cl)cc32)cc1-c1cccs1` [Example 59, 5-chloro-3-(4-Methoxy-3-thiophen-2-ylbenzylidene)-1,3-dihydroindol-2-one]: the IC50 turned out to be 6 µM in the test with A431 cells, 14.4 µM in test [1] and 17.2 µM in the test on SKOV3 cells.
Turning to `COc1ccc(/C=C2/C(=O)Nc3ccc(Cl)cc32)cc1-c1cccnc1` [Example 60], the IC50 was 5.9 µM in the test on A431 cells, 40 µM in test [1] and 4.8 µM in the test on SKOV3 cells.
With `COc1cccc(-c2cc(OC)c(OC)cc2/C=C2/C(=O)Nc3ccc(Cl)cc32)c1` [Example 61, 5-Chloro-3-(4,5-3′-Trimethoxybiphenyl-2-ylmethylene)-1,3-dihydroindol-2-one], the concentration for half-maximal inhibition (IC50) with A431 cells was greater than 25 µM; in test [1], greater than 50 µM; with SKOV3 cells it was greater than 25 µM.
Regarding `COc1cc(/C=C2/C(=O)Nc3ccccc32)c(-c2ccc3ccccc3c2)cc1OC` [Example 62, 3-(4,5-Dimethoxy-2-naphthalen-2-ylbenzylidene)-1,3-dihydroindol-2-one], the results for the IC50 (in the test with A431 cells; in test [1]; in the test on SKOV3 cells) were 6 µM, 28.8 µM and 6.1 µM, respectively.
